Measured values as given in US4000281A, “Pyrazole derivatives” (priority 1971, dated 1976).
Converted amounts (≈) assume the structure as drawn. Like-named read-outs stand apart in the source and are kept apart here.

How the values were obtained:
Influenza Jap 305 = assay: 48-Hour Mouse Test (Test No. 2), Influenza Jap 305; format: in vivo, mice; details: read-out: Log Reductions (EID50) as compared with controls
Influenza PR8 = assay: 48-Hour Mouse Test (Test No. 2), Influenza PR8; format: in vivo, mice; details: virus dose not ascertained, read-out: Log Reductions (EID50) as compared with controls
[1] = tested on: rhinovirus type 14 (prototype); assay: Inhibition of rhinovirus cytopathogenic effect in human embryonic lung cultures, type 14; format: cell-based; details: 50 and 75 μgm/ml
Method: (§1) Other tests were carried out to determine the inhibitory effect of 3-(4-pyridyl)-4-(2-hydroxyphenyl)-5-ethylpyrazole on various types of rhinovirus.
(§2) In each test two cultures of human embryonic lung were prepared of which one was treated with the above compound while the other served as control. The cultures were then infected with a strain of rhinovirus. The compound was used in concentrations of 50 and 75 μgm/ml and was considered to be active if the cytopathogenic effect of the rhinovirus was reduced by at least 75% as compared to the control culture. This cytopathogenic effect was determined by counting the number of plaques formed by destroyed cells.
(§3) Seven human types of rhinovirus were employed and the following results registered: […]

Herpes = assay: Herpes-induced keratitis in the rabbit eye; format: in vivo; details: local use, 2, 1 and 0.5%
Method: Another test was carried out with this same compound in order to evaluate its action against Herpes-induced keratitis in the rabbit eye.

[2] = tested on: rhinovirus type 55 (strain Wis 315E); assay: Gradient plate plaque-reduction technique in HeLa cells, rhinovirus type 55; format: cell-based, human; design: key to ACTIVITY: +: active
Method: (§4) A further series of tests was performed in which the inhibitory concentrations of 3-(4-pyridyl)-4-(2-hydroxyphenyl)-5-ethylpyrazole against various human types of rhinovirus were determined by the gradient plate plaque-reduction technique. Cultures of HeLa cancer cells were used of which two were prepared for each test. One culture was treated with the above compound which was applied in gradient while the other culture served as control. Both cultures were then infected with a human type of rhinovirus. The inhibitory concentration was determined by measuring the zone of inhibition on the cellsheet. Six types of rhinovirus were employed and the following results registered.

Influenza virus Jap 305 = assay: Mouse-Survival Test (Test No. 1), Influenza Jap 305; format: in vivo, mice; details: for S.I.: significant if >1.24
Influenza virus Swine A = format: in vivo, mice; details: 500 mg/kg IP
[3] = tested on: rhinovirus type 3 (prototype); assay: Inhibition of rhinovirus cytopathogenic effect in human embryonic lung cultures, type 3; format: cell-based; details: 50 and 75 μgm/ml
Method: as §1, §2, §3

[4] = tested on: rhinovirus type 9 (prototype); assay: Inhibition of rhinovirus cytopathogenic effect in human embryonic lung cultures, type 9; format: cell-based; details: 50 and 75 μgm/ml
Method: as §1, §2, §3

[5] = tested on: rhinovirus type 50 (strain A2 No.58); assay: Gradient plate plaque-reduction technique in HeLa cells, rhinovirus type 50; format: cell-based, human; design: key: +: active
Method: as §4

[6] = tested on: rhinovirus type 8 (prototype); assay: Inhibition of rhinovirus cytopathogenic effect in human embryonic lung cultures, type 8; format: cell-based; details: 50 and 75 μgm/ml
Method: as §1, §2, §3

Influenza Swine A = assay: animal or person; format: in vivo, mice; details: in Mus musculus, 48 h, read-out: Log Reductions (EID50) as compared with controls
Influenza viruses = assay: Mouse-Survival Test (Test No. 1), Influenza virus strain not given; format: in vivo, mice; details: unidentified influenza virus, 360 h
[7] = tested on: rhinovirus type 14 (strain 1059); assay: Gradient plate plaque-reduction technique in HeLa cells, rhinovirus type 14; format: cell-based, human; design: key to ACTIVITY: +: active; -: inactive
Method: as §4

[8] = tested on: Influenza virus Maryland B; assay: Mouse-Survival Test (Test No. 1), Influenza Maryland B; format: in vivo, mice; details: for Survival Percent: virus dose 79 multiples of LD50; for S.I.: virus dose 79 multiples of LD50, significant if >1.24
[9] = tested on: rhinovirus type 44 (strain F01 3744); assay: Gradient plate plaque-reduction technique in HeLa cells, rhinovirus type 44; format: cell-based, human; design: key to ACTIVITY: +: active; -: inactive
Method: as §4

[10] = tested on: rhinovirus type 27 (strain Cor. 28); assay: Gradient plate plaque-reduction technique in HeLa cells, rhinovirus type 27; format: cell-based, human; design: key to ACTIVITY: +: active
Method: as §4

Herpes Simplex [11] = assay: microbe, parasite or virus in culture; format: cell-based, rabbit; details: Oryctolagus cuniculus, 96 h; dose of 250 μg; virus pretreated with compound one hour; 50% considered significant; read-out: plaque-reduction
Influenza virus = format: in vivo, mice; details: for S.I. / Survival Percent / MDD (Mean Day of Death): intranasal 10% suspension, 25 multiples of LD50; for MDD (Mean Day of Death): virus alone 6.20
Herpes Simplex [12] = assay: microbe, parasite or virus in culture; format: cell-based, rabbit; details: Oryctolagus cuniculus, 96 h; dose of 250 μg; tissue first infected, compound in overlay; 50% considered significant; read-out: plaque-reduction
[13] = tested on: rhinovirus type 6 (SF1349); assay: Inhibition of rhinovirus cytopathogenic effect in human embryonic lung cultures, type 6; format: cell-based; details: 50 and 75 μgm/ml
Method: as §1, §2, §3

[14] = tested on: rhinovirus type 5 (prototype); assay: Inhibition of rhinovirus cytopathogenic effect in human embryonic lung cultures, type 5; format: cell-based; details: 50 and 75 μgm/ml
Method: as §1, §2, §3

[15] = tested on: rhinovirus type 39 (strain 209); assay: Gradient plate plaque-reduction technique in HeLa cells, rhinovirus type 39; format: cell-based, human; design: key: +: active
Method: as §4

[16] = Enterovirus, read-out: MINIMUM INHIBITORY Concentration
[17] = Jap 305, 5 mg/kg IP, virus dose 20 multiples of LD50
[18] = Jap 305, 50 mg/kg IP, virus dose 32 multiples of LD50
[19] = Jap 305, 50 mg/kg PO, virus dose 3.2 multiples of LD50
[20] = Jap 305, 500 mg/kg IP, virus dose 32 multiples of LD50
[21] = Jap 305, 500 mg/kg PO, virus dose 3.2 multiples of LD50
[22] = ip, read-out: Survival Index (S.I.)

`CCc1[nH]nc(-c2ccncc2)c1-c1ccccc1O` [Compound A, 3-(4-pyridyl)-4-(2-hydroxyphenyl)-5-ethylpyrazole] showed a log reduction at 50 mg/kg (Influenza Jap 305; ip) of 1.53, a log reduction at 5 mg/kg (Influenza Jap 305; po) of 2 and a log reduction at 50 mg/kg (Influenza Jap 305; po) of 2.7. It also gave a log reduction at 500 mg/kg (Influenza Jap 305; po) of 2.5, a log reduction at 5 mg/kg (Influenza PR8; PR8, 5 mg/kg IP) of 1.41 and a log reduction at 50 mg/kg (Influenza PR8; PR8, 50 mg/kg IP) of 1.69. The log reduction at 50 mg/kg (Influenza PR8; PR8, 50 mg/kg PO) was 1.21, the log reduction at 500 mg/kg (Influenza PR8; PR8, 500 mg/kg IP) was 1.87 and the log reduction at 500 mg/kg (Influenza PR8; PR8, 500 mg/kg PO) was 1.07. For the same compound, the ACTIVITY [1] was “+ (active)”, the “formation of geographic keratitic lesions as compared to infected control animals” value (Herpes) was “inhibited the formation of geographic keratitic lesions” and the ACTIVITY [2] was “+”. The MIC [2, 16] was 20 µg/mL (≈ 75.4 µM), the “Survival Percent” value (Influenza virus Jap 305; [17]) was 20% and the S.I. (Influenza virus Jap 305; [17]) was 1.34. The “Survival Percent” value (Influenza virus Jap 305; [18]) was 10%, the S.I. (Influenza virus Jap 305; [18]) was 1.34 and the “Survival Percent” value (Influenza virus Jap 305; [19]) was 60%. The S.I. (Influenza virus Jap 305; [19]) was 1.43, the “Survival Percent” value (Influenza virus Jap 305; [20]) was 60% and the S.I. (Influenza virus Jap 305; [20]) was 2.04. The “Survival Percent” value (Influenza virus Jap 305; [21]) was 66%, the S.I. (Influenza virus Jap 305; [21]) was 1.43 and the “Survival Percent” value (Influenza virus Swine A; virus dose 14 multiples of LD50) was 50%. The S.I. (Influenza virus Swine A; virus dose 14 multiples of LD50, significant if >1.24) was 1.52, the ACTIVITY [3] was “+ (active)” and the ACTIVITY [4] was “+ (active)”. The ACTIVITY [5] was “+”, the ACTIVITY [6] was “+ (active)” and the log reduction at 50 mg/kg (Influenza Swine A; ip) was 1. It also gave a log reduction at 500 mg/kg (Influenza Swine A; ip) of 1.8, a log reduction at 5 mg/kg (Influenza Swine A; po) of 1.1 and a log reduction at 50 mg/kg (Influenza Swine A; po) of 1.4. It also gave a response vs control in vivo at 50 mg/kg (Influenza viruses; [22]) of 137%, a response vs control in vivo at 500 mg/kg (Influenza viruses; [22]) of 171% and a responders at 50 mg/kg (Influenza viruses; ip, read-out: Survival Percent) of 0%. The responders at 500 mg/kg (Influenza viruses; ip, read-out: Survival Percent) was 37.5%, the response vs control in vivo at 500 mg/kg (Influenza viruses; po, read-out: Survival Index (S.I.)) was 171% and the responders at 500 mg/kg (Influenza viruses; po, read-out: Survival Percent) was 33.3%. For the same compound, the ACTIVITY [7] was “-”, the MIC [7, 16] was 30 µg/mL (≈ 113 µM) and the “Survival Percent” value ([8]; 500 mg/kg IP) was 10%. For the same compound, the S.I. ([8]; 500 mg/kg IP) was 1.47, the “Survival Percent” value ([8]; 500 mg/kg PO) was 12% and the S.I. ([8]; 500 mg/kg PO) was 1.52. For the same compound, the ACTIVITY [9] was “-”, the MIC [9, 16] was 30 µg/mL (≈ 113 µM) and the ACTIVITY [10] was “+”. It also gave an MIC [10, 16] of 15 to 16 µg/mL (≈ 56.5 to 60.3 µM), an inhibition at 250 µg (Herpes Simplex [11]) of 60% and a S.I. (Influenza virus; 30 min. before infection) of 1.90. The “Survival Percent” value (Influenza virus; 30 min. before infection) was 40%, the “MDD (Mean Day of Death)” value (Influenza virus; 30 min. before infection) was 11.80 days and the S.I. (Influenza virus; 2 hr. before infection) was 2.07. The “Survival Percent” value (Influenza virus; 2 hr. before infection) was 70%, the “MDD (Mean Day of Death)” value (Influenza virus; 2 hr. before infection) was 12.80 days and the S.I. (Influenza virus; 4 hr. before infection) was 1.88. For the same compound, the “Survival Percent” value (Influenza virus; 4 hr. before infection) was 60%, the “MDD (Mean Day of Death)” value (Influenza virus; 4 hr. before infection) was 11.70 days and the S.I. (Influenza virus; 6 hr. before infection) was 1.90. The “Survival Percent” value (Influenza virus; 6 hr. before infection) was 50%, the “MDD (Mean Day of Death)” value (Influenza virus; 6 hr. before infection) was 11.80 days and the “persistence of the effect: differences between times of administration” value (Influenza virus; mouse, in vivo) was “no significant differences”. For the same compound, the protective effect (Influenza virus; mouse, in vivo) was “definite protective effect at all times of administration”, the “survival period of the treated animals that did die, relative to controls” value (Influenza virus; mouse, in vivo) was “approximately twice that of the controls” and the inhibition at 250 µg (Herpes Simplex [12]) was 100%. For the same compound, the ACTIVITY [13] was “+ (active)”, the ACTIVITY [14] was “+ (active)” and the ACTIVITY [15] was “+”.
